# “Also recorded” adds a separate entry of the source. Ends that are not written are not given here. Peptide text beside a SMILES is read from it. * marks the point of attachment. X1 = CN(C)c1ccc2c(-c3ccc(C(=O)*)cc3C(=O)[O-])c3ccc(=[N+](C)C)cc-3oc2c1
# T1: Gαq activated with aluminum fluoride (Homo sapiens, UniProt P50148)
# T1 sequence (P50148 1-359): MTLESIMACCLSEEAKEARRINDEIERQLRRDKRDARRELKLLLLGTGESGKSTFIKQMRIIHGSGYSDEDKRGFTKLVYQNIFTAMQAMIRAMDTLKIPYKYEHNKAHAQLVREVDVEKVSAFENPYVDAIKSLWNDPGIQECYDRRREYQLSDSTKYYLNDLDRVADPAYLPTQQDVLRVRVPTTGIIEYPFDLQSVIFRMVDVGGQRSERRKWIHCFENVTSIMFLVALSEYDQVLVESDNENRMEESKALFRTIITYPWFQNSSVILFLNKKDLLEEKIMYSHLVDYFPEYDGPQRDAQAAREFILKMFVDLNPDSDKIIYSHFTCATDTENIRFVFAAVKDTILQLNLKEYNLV
# T2: Gαq (Homo sapiens, UniProt P50148)
# T2 sequence (P50148 1-359): T1 sequence (P50148 1-359)
# B1: PLC-β3(L859E): mutant full-length PLC-β3 with single substitution L859E in its HTH that does not bind Gαq (protein)
# chain: AGAQPGVHALQLEPPTVVETLRRGSKFIKWDEETSSRNLVTLRVDPNGFFLYWTGPNMEVDTLDISSIRDTRTGRYARLPKDPKIREVLGFGGPDARLEEKLMTVVSGPDPVNTVFLNFMAVQDDTAKVWSEELFKLAMNILAQNASRNTFLRKAYTKLKLQVNQDGRIPVKNILKMFSADKKRVETALESCGLKFNRSESIRPDEFSLEIFERFLNKLCLRPDIDKILLEIGAKGKPYLTLEQLMDFINQKQRDPRLNEVLYPPLRPSQARLLIEKYEPNQQFLERDQMSMEGFSRYLGGEENGILPLEALDLSTDMTQPLSAYFINSSHNTYLTAGQLAGTSSVEMYRQALLWGCRCVELDVWKGRPPEEEPFITHGFTMTTEVPLRDVLEAIAETAFKTSPYPVILSFENHVDSAKQQAKMAEYCRSIFGDALLIEPLDKYPLAPGVPLPSPQDLMGRILVKNKKRHRPSAGGPDSAGRKRPLEQSNSALSESSAATEPSSPQLGSPSSDSCPGLSNGEEVGLEKPSLEPQKSLGDEGLNRGPYVLGPADREDEEEDEEEEEQTDPKKPTTDEGTASSEVNATEEMSTLVNYIEPVKFKSFEAARKRNKCFEMSSFVETKAMEQLTKSPMEFVEYNKQQLSRIYPKGTRVDSSNYMPQLFWNVGCQLVALNFQTLDVAMQLNAGVFEYNGRSGYLLKPEFMRRPDKSFDPFTEVIVDGIVANALRVKVISGQFLSDRKVGIYVEVDMFGLPVDTRRKYRTRTSQGNSFNPVWDEEPFDFPKVVLPTLASLRIAAFEEGGKFVGHRILPVSAIRSGYHYVCLRNEANQPLCLPALLIYTEASDYIPDDHQDYAEAEINPIKHVSLMDQRARQLAALIGESEAQAGQETCQDTQSQQLGSQPSSNPTPSPLDASPRRPPGPTTSPASTSLSSPGQRDDLIASILSEVAPTPLDELRGHKALVKLRSRQERDLRELRKKHQRKAVTLTRRLLDGLAQAQAEGRCRLRPGALGGAADVEDTKEGEDEAKRYQEFQNRQVQSLLELREAQVDAEAQRRLEHLRQALQRLREVVLDANTTQFKRLKEMNEREKKELQKILDRKRHNSISEAKMRDKHKKEAELTEINRRHITESVNSIRRLEEAQKQRHDRLVAGQQQVLQQLAEEEPKLLAQLAQECQEQRARLPQEIRRSLLGEMPEGLGDGPLVACASNGHAPGSSGHLSGADSESQEENTQL
# Legend:
# [1] = target: T1, Gαq activated with aluminum fluoride; experiment: Fluorescence polarization binding of TAMRA-labeled PLC-β3 HTH peptides to Gαq; conditions: Gαq-GDP without added aluminum fluoride
# Method: (§1) FIGS. 6A-C. Quantification of Gαq binding to peptides corresponding to the HTH of PLβ3. […] The structures of PLCβ3 (3 OHM) and p63RhoGEF (2RGN) bound to Gαq were superimposed and a single Gαq is shown. Immediately below is shown the sequence alignment of PLCβ3 (SEQ ID NO:37) and p63RhoGEF (SEQ ID NO:41) encompassing the helix-turn-helix. Underlined residues are labeled in the structure. […] (FIG. 6C) Increasing concentrations of unlabeled PLC-β3 were added to a solution of labeled 25-mer (400 nM) and Gαq (4 μM). KD and IC50 values were derived from three independent experiments.
# activated Gαs = activated Gαs (Homo sapiens, UniProt P63092); experiment: Fluorescence polarization binding of TAMRA-labeled peptide to activated Gαs
# activated GαI = experiment: Fluorescence polarization binding of TAMRA-labeled peptide to activated Gαi
# activated Gαo = activated Gαo (Homo sapiens, UniProt P09471); experiment: Fluorescence polarization binding of TAMRA-labeled peptide to activated Gαo
# [2] = tested on: G-alpha-q mediated activation of PLC-beta; experiment: 5HT2A/DOI-stimulated [3H]inositol phosphate accumulation in transiently transfected HEK293 cells; format: cell-based; conditions: DOI 1-2 microMolar (FIG. 10)
# Method: FIG. 10. […] HEK293 cells transfected with 100 ng of 5HT2A and stimulated with 1-2 microMolar of DOI (Synonym: (±)-DOI, (±)-1-(2,5-Dimethoxy-4-iodophenyl)-2-aminopropane hydrochloride, (±)-2,5-Dimethoxy-4-iodoamphetamine hydrochloride) were assayed for [^3H]inositol phosphate accumulation. The control for no DOI stimulation for the CFP-HTH-YFP sample is shown as dashed line (A) and triangle (B). Where indicated HEK293 cells were transfected with varying amounts of PLC constructs.
# This experiment is a proof of principle to inhibit G-alpha-q with adeno-associated virus (AAV) to treat uveal melanoma patients. Future experiments will use a retrovirus containing the 27 residue helix-turn-helix in primary uveal melanoma cells to induce apoptosis and inhibit the progression of the uveal melanoma.
# The 27mer construct used is between two fluorescent proteins YFP and CFP yielding: YFP-HTH(27mer)-CFP. The 27mer sequence is
# A CaaX box was attached to the YFP-HTH(27mer)-CFP to keep this molecule at the membrane. The CaaX box sequence is at the very C-terminal end and are the residues CAIL (SEQ ID NO:36).
# Gαq/i = experiment: Fluorescence polarization assay in 384 well plates, competition with TAMRA-27-mer; format: binding; conditions: 30 μM, 200 nM TAMRA-27-mer, 1.5 μM Gαq/i
# Method: FIG. 4. Fluorescence polarization assay in 384 well plates. Each well contains 200 nM TAMRA-27-mer and 1.5 μM Gαq/i. Z′-factor determined using 48 wells+/−aluminum fluoride (AlF4). Unlabeled 27-mer (30 μM) added to an additional 48 wells. Coefficient of variance range between 1 and 4 percent.
# To begin to develop a high-throughput format suitable for screening large libraries of compounds, the original fluorescence polarization assay was formatted to use microtiter plates (FIG. 4). The initial reconfiguration to use 384-well plates is highly promising, providing a high dynamic range as defined by the difference in fluorescence polarization of the TAMRA-27-mer in the presence of Gαq-GDP either alone or activated with aluminum fluoride. The high dynamic range combined with low variance produced a Z′-factor of approximately 0.8. An assay with a Z′-factor above 0.5 is generally required for useful high-throughput screening^19; a Z′-factor above 0.8 is generally considered excellent. Moreover, the addition of 30 μM of unlabeled 27-mer competed with the TAMRA-27-mer for binding to Gαq leading to an approximately 50 percent decrease in fluorescence polarization.
# Gαq = target: T2, Gαq; experiment: Fluorescence polarization competition: unlabeled PLC-β3 against TAMRA-labeled peptide for Gαq; format: binding
# Method: FIGS. 3A and 3B. TAMRA-27-mer and PLC-β3 directly compete for Gαq. (FIG. 3A) Increasing concentrations of PLC-β3 were added to a solution of TAMRA-27-mer (400 nM) and Gαq (800 nM). The IC50 value is derived from three independent experiments. (FIG. 3B) Phospholipase activity of PLC-β3 activated by Gαq using lipid vesicles and inhibited by increasing concentrations of TAMRA-27-mer.
# as §1
# Fluorescence polarization will be used to monitor disruption of complex formation between the 27-mer and active Gαq to identify compounds that directly compete with the complex. It is expected that the majority of these compounds will sit within the canonical effector-binding site of Gαq to prevent the binding of peptide—and by extension, prevent the binding of effectors. However, before using this assay format to identify inhibitors of complex formation it was necessary to insure that peptides corresponding to the HTH of PLC-β3 bound to Gαq. […] These experiments strongly support that peptides corresponding to the HTH of PLC-β3 directly bind to the effector pocket of Gαq and can be used as surrogates of effectors in assays of complex formation with active Gαq.
# The most promising peptide consisted of 25 residues (TAMRA-25-mer) spanning the entire HTH and bound to G-alpha-q with appreciable affinity (Kd˜6 microMolar).
# activated Gαs, sequence (P63092 whole entry): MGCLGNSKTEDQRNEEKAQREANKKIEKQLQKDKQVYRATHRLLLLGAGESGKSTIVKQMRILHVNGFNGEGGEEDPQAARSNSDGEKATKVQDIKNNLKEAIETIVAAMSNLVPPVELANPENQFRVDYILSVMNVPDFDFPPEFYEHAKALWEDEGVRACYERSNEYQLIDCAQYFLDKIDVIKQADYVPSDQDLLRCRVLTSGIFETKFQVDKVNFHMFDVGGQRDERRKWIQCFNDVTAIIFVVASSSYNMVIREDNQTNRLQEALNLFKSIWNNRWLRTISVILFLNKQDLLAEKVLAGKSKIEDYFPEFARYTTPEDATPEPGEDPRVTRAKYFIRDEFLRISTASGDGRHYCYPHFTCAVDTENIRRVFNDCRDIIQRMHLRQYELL
# activated Gαo, sequence (P09471 whole entry): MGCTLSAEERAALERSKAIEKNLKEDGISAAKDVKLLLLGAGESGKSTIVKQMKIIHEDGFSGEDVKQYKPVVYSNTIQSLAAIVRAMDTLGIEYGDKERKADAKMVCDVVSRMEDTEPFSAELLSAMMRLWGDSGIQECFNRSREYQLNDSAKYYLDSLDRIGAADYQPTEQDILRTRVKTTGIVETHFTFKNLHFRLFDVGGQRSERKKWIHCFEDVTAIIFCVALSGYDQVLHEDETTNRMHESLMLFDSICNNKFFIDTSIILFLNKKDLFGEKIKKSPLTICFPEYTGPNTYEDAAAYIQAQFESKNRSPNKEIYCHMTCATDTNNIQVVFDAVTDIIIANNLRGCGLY
molecule,measurement,setting,value
CC[C@H](C)[C@H](NC(=O)[C@H](CC(C)C)NC(=O)[C@H](C)NC(=O)[C@H](CCC(=O)O)NC(=O)[C@H](C)NC(=O)[C@H](Cc1ccc(O)cc1)NC(=O)[C@H](CC(=O)O)NC(=O)[C@H](CCC(N)=O)NC(=O)[C@H](Cc1c[nH]cn1)NC(=O)c1ccc(-c2c3ccc(=[N+](C)C)cc-3oc3cc(N(C)C)ccc23)c(C(=O)[O-])c1)C(=O)N[C@@H](CC(N)=O)C(=O)N1CCC[C@H]1C(=O)N[C@H](C(=O)N[C@@H](CCCCN)C(=O)N[C@@H](Cc1c[nH]cn1)C(=O)N[C@H](C(=O)N[C@@H](CO)C(=O)N[C@@H](CC(C)C)C(=O)N[C@@H](CCSC)C(=O)N[C@@H](CC(=O)O)C(=O)N[C@@H](CCC(N)=O)C(=O)N[C@@H](CCCNC(=N)N)C(=O)N[C@@H](C)C(=O)N[C@@H](CCCNC(=N)N)C(=O)N[C@@H](CCC(N)=O)C(=O)N[C@@H](CC(C)C)C(=O)O)C(C)C)[C@@H](C)CC [TAMRA-25-mer] (X1-HQDYAEALINPIKHVSLMDQRARQL-OH; C-terminus assumed),complex formation with inactive Gαq-GDP / dependence on aluminum fluoride activation,[1],dependent on the activation of G-alpha-q with aluminum fluoride; also recorded: dependent on the activation of Gαq with aluminum fluoride
same,binding to activated Gαs,activated Gαs,"failed to bind; also recorded: neither activated Gαs, GαI, nor Gαo bound the peptide"
same,binding to activated Gαi,activated GαI,"failed to bind; also recorded: neither activated Gαs, GαI, nor Gαo bound the peptide"
same,binding to activated Gαo,activated Gαo,"failed to bind; also recorded: neither activated Gαs, GαI, nor Gαo bound the peptide"
"CFP-27mer(I860A)-YFP: 27mer HQDYAEALANPIKHVSLMDQRARQLAA between fluorescent proteins YFP and CFP, C-terminal CaaX box CAIL, expressed by transient transfection (HQDYAEALANPIKHVSLMDQRARQLAACAIL; also: fused between fluorescent proteins YFP and CFP)",inhibition of G-alpha-q signaling after transient transfection,[2],inhibits G-alpha-q mediated activation of PLC-beta
same,inhibition of G-alpha-q signaling after transient transfection,[2]; listed as 27 residue helix-turn-helix peptide,inhibited G-alpha-q signaling
HQDYAEALANPIKHVSL-Nle-DQRARQLAA [unlabeled 27-mer],decrease in fluorescence polarization,Gαq/i,approximately 50%
B1,competition with the 27-mer for binding to Gαq,"Gαq; TAMRA-27-mer 400 nM, Gαq 800 nM",could not compete
same,effect on TAMRA-25-mer binding to Gαq,Gαq; at concentrations as high as 35 μM,no effect
